Patent US11351173B2, “Substituted pyrrolo[1,2-a]pyrimidines and their use in the treatment of medical disorders” (Bial—R&D Investments, S.A., priority 2014, dated 2022)
≈ marks a conversion by molar mass, not a printed value.

How the values were obtained:
[1] = biological target: T1, glucocerebrosidase (Gcase) (Homo sapiens, UniProt P04062); assay: Glucocerebrosidase (Gcase) activation assay, 4-methylumbelliferyl-beta-D-glucopyranoside substrate, fluorescence readout; assay type: biochemical; conditions: for activation at 0.1 µM / Percent Gcase Activation, 0.1 μM Test Compound: test compound at 0.1 μM; for activation at 0.1 µM: read-out: Percent Gcase Activation, 0.1 μM Test Compound; for activation at 1 µM / Percent Gcase Activation, 1 μM Test Compound: test compound at 1.0 μM; for activation at 1 µM: read-out: Percent Gcase Activation, 1 μM Test Compound
T1 construct: micellar solution containing 10 nM GCase and 100 nM saposin C
T1 sequence (P04062 40-536): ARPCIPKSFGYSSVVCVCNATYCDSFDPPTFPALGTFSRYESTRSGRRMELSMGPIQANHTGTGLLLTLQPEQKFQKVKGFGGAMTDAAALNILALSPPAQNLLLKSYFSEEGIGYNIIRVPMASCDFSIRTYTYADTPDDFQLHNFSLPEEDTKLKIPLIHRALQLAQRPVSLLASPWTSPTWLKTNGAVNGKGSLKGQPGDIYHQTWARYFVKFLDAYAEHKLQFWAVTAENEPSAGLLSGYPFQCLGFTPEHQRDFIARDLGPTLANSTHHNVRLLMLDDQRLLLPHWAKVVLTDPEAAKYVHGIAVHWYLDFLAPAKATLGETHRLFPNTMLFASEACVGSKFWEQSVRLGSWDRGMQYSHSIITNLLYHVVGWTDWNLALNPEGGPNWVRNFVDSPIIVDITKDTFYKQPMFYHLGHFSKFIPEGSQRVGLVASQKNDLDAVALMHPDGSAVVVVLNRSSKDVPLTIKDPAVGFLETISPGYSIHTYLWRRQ
How it was run: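 Fluorescence (ex 365 nm, em 440 nm) read after glycine pH 12.5 stop of a 15 min room-temperature reaction. GCase 10 nM plus saposin C 100 nM in PS/triton micelles, pH 4.7, preincubated 30 min with compound; substrate solution held 2 mM 4-MU-beta-glucoside. Screened at 1.0 and 0.1 μM; 8-point, 3-fold curves from 5 μM top.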

[2] = Compound solubility in water; conditions: water; for solubility: Compound Solubility in Water

Row | SMILES | activation at 0.1 µM [1] | activation at 1 µM [1] | solubility [2] | Percent Gcase Activation, 0.1 μM Test Compound [1] | Percent Gcase Activation, 1 μM Test Compound [1] | Compound Solubility in Water [2]
1 | Cc1cc(C)n2ccc(C(=O)N[C@H]3CC[C@H](OC4CCCC4)CC3)c2n1 [III-132] | > 20% | > 60% | 5.8 µg/mL (≈ 16.3 µM) |  |  | 
2 | Cc1cc(C)n2ccc(C(=O)NC3(C)CCOc4c(F)cccc43)c2n1 (stereo not drawn) [III-133] | > 20% | > 60% | 1.9 µg/mL (≈ 5.38 µM) |  |  | 
3 | Cc1cc(C)n2ccc(C(=O)NC3CCC(C(=O)N(C)C4CC4)CC3)c2n1 (stereo not drawn) [III-134] | < 10% | < 30% | 38.5 µg/mL (≈ 104 µM) |  |  | 
4 | Cc1cc(C)n2ccc(C(=O)NC3CCC(C(=O)N(C)C4CC4)CC3)c2n1 (stereo not drawn) [III-135] |  |  |  | * (less than 10% Gcase activation) | + (less than 30% Gcase activation) | 41.1 µg/mL
5 | CCCCOC(=O)N1CC(NC(=O)c2ccn3c(C)cc(C)nc23)C1 [III-137] | < 10% | < 30% | 15.5 µg/mL (≈ 45 µM) |  |  | 
6 | Cc1cc(C)n2ccc(C(=O)NC3CCCC34CCCCO4)c2n1 (stereo not drawn) [III-138] | 10 to 20% | > 60% |  |  |  | 33.7 µg/mL
7 | Cc1cc(C)n2ccc(C(=O)NC3CCCC34CCCCO4)c2n1 (stereo not drawn) [III-139] |  |  |  | * (less than 10% Gcase activation) | +++ (Gcase activation greater than 60%) | 1.4 µg/mL
8 | Cc1cc(C)n2ccc(C(=O)NC3CCC4(CCCO4)CC3)c2n1 (stereo not drawn) [III-141] | < 10% | < 30% | 17 µg/mL (≈ 51.9 µM) |  |  | 
9 | Cc1cc(C)n2ccc(C(=O)NC3CCC4(CCCO4)CC3)c2n1 (stereo not drawn) [III-142] |  |  |  | * (less than 10% Gcase activation) | + (less than 30% Gcase activation) | 17.4 µg/mL
10 | CCCCCO[C@@H]1CC[C@H](NC(=O)c2ccn3c(C)cc(C)nc23)C1 [III-145] | 10 to 20% | > 60% |  |  |  | 2.3 µg/mL
11 | Cc1cc(C)n2ccc(C(=O)NC3CCC4(CCCO4)C3)c2n1 (stereo not drawn) [III-146] | < 10% | < 30% | 25.4 µg/mL (≈ 81 µM) |  |  | 
12 | Cc1cc(C)n2ccc(C(=O)NC3CCC4(CCCO4)C3)c2n1 (stereo not drawn) [III-147] |  |  |  | * (less than 10% Gcase activation) | + (less than 30% Gcase activation) | 20.4 µg/mL
13 | Cc1cc(C)n2ccc(C(=O)Nc3ccc4c(c3)CCC4)c2n1 [III-148] | > 20% | > 60% | 0.06 µg/mL (≈ 0.196 µM) |  |  | 
14 | Cc1cc(C)n2ccc(C(=O)Nc3ccc(C)c(-c4ncco4)c3)c2n1 [III-149] | > 20% | > 60% | < 1.5 µg/mL |  |  | 
15 | Cc1cc(C)n2ccc(C(=O)Nc3ccc(-c4ncco4)cc3C)c2n1 [III-150] | > 20% | > 60% | 0.1 µg/mL (≈ 0.289 µM) |  |  | 
16 | Cc1cc(C)n2ccc(C(=O)NC3CCCCC34CCCCO4)c2n1 (stereo not drawn) [III-152] | 10 to 20% | > 60% | 6.7 µg/mL (≈ 19.6 µM) |  |  | 
17 | Cc1cc(C)n2ccc(C(=O)NCC3CCC(F)(F)CC3)c2n1 [III-153] | 10 to 20% | 30 to 60% | 15.3 µg/mL (≈ 47.6 µM) |  |  | 
18 | CCCCCO[C@H]1CC[C@H](NC(=O)c2ccn3c(COC)cc(COC)nc23)CC1 [III-154] | > 20% | > 60% | 10.6 µg/mL (≈ 25.4 µM) |  |  | 
19 | COCc1cc(COC)n2ccc(C(=O)NC3(C)CCOc4cc(F)c(F)cc43)c2n1 (stereo not drawn) [III-155] | 10 to 20% | > 60% | 2.1 µg/mL (≈ 4.87 µM) |  |  | 
20 | C#Cc1ccc(C(C)(C)NC(=O)c2ccn3c(COC)cc(COC)nc23)cc1 [III-156] | 10 to 20% | > 60% | 13.9 µg/mL (≈ 35.5 µM) |  |  | 
21 | C#Cc1cccc(C(C)(C)NC(=O)c2ccn3c(COC)cc(COC)nc23)c1 [III-157] | > 20% | > 60% | 2.6 µg/mL (≈ 6.64 µM) |  |  | 
22 | [2H]c1c(C([2H])([2H])[2H])nc2c(C(=O)Nc3ccc(-c4cocn4)cc3)cc([2H])n2c1C([2H])([2H])[2H] [III-158] | > 20% | > 60% | 0.07 µg/mL (≈ 0.206 µM) |  |  | 
23 | [2H]c1c(C([2H])([2H])[2H])nc2c(C(=O)NC3(C)CCOc4ccccc43)cc([2H])n2c1C([2H])([2H])[2H] (stereo not drawn) [III-159] | > 20% | > 60% | 4.9 µg/mL (≈ 14.3 µM) |  |  | 
24 | [2H]c1c(C([2H])([2H])[2H])nc2c(C(=O)NC(C)(C)c3ccc(F)cc3)cc([2H])n2c1C([2H])([2H])[2H] [III-160] | > 20% | > 60% | 1.6 µg/mL (≈ 4.8 µM) |  |  | 
25 | O=C(N[C@H]1CCCc2ccccc21)c1ccn2c(C3CC3)ccnc12 [III-161] | < 10% | 30 to 60% | 0.9 µg/mL (≈ 2.72 µM) |  |  | 
26 | CC(C)c1ccnc2c(C(=O)N[C@H]3CCCc4ccccc43)ccn12 [III-162] | < 10% | > 60% | 1 µg/mL (≈ 3 µM) |  |  | 
27 | [2H]C1(NC(=O)c2ccn3c(C)cc(NC(C)=O)nc23)CCOc2ccccc21 (stereo not drawn) [III-163] | < 10% | < 30% | 2.5 µg/mL (≈ 6.84 µM) |  |  | 
28 | COCCOc1ccc2c(c1)C(NC(=O)c1ccn3c(C)cc(C)nc13)CCO2 (stereo not drawn) [III-170] | < 10% | 30 to 60% | 9.2 µg/mL (≈ 23.3 µM) |  |  | 

Now from value to compound:

Row | activation at 0.1 µM [1] | activation at 1 µM [1] | solubility [2] | Percent Gcase Activation, 0.1 μM Test Compound [1] | Percent Gcase Activation, 1 μM Test Compound [1] | Compound Solubility in Water [2] | SMILES
29 | > 20% | > 60% | 2.7 µg/mL (≈ 8.15 µM) |  |  |  | Cc1cc(C)n2ccc(C(=O)NC3c4ccccc4C4CC3C4)c2n1 (stereo not drawn) [III-136]
30 | > 20% | > 60% | 3.3 µg/mL (≈ 8.79 µM) |  |  |  | Cc1cc(C)n2ccc(C(=O)NC3CCC4(CCCO4)c4ccccc43)c2n1 (stereo not drawn) [III-143]
31 | 10 to 20% | > 60% | 0.8 µg/mL (≈ 2.13 µM) |  |  |  | Cc1cc(C)n2ccc(C(=O)NC3CC=C(CCCO)c4ccccc43)c2n1 (stereo not drawn) [III-144]
32 | < 10% | < 30% | 16.2 µg/mL (≈ 50.6 µM) |  |  |  | Cc1cc(C)n2ccc(C(=O)NC3CCCc4cnccc43)c2n1 (stereo not drawn) [III-151]
33 | > 20% | > 60% | 1.4 µg/mL (≈ 4.55 µM) |  |  |  | CC[C@H](NC(=O)c1ccn2c(C)cc(C)nc12)c1ccccc1 [III-164]
34 | > 20% | > 60% | 1.1 µg/mL (≈ 3.75 µM) |  |  |  | Cc1cc(C)n2ccc(C(=O)N[C@H](C)c3ccccc3)c2n1 [III-165]
35 | 10 to 20% | > 60% | 2 µg/mL (≈ 6.82 µM) |  |  |  | Cc1cc(C)n2ccc(C(=O)N[C@@H](C)c3ccccc3)c2n1 [III-166]
36 | > 20% | > 60% | 0.8 µg/mL (≈ 2.5 µM) |  |  |  | Cc1cc(C)n2ccc(C(=O)NC3CCCc4ccccc43)c2n1 (stereo not drawn) [III-167]
37 | > 20% | > 60% | 0.7 µg/mL (≈ 2.19 µM) |  |  |  | Cc1cc(C)n2ccc(C(=O)N[C@@H]3CCCc4ccccc43)c2n1 [III-168]
38 | < 10% | < 30% | 29.3 µg/mL (≈ 97.9 µM) |  |  |  | Cc1cc(C)n2ccc(C(=O)NC3CC4CCC(C3)O4)c2n1 (stereo not drawn) [III-169]
39 | > 20% | > 60% | 1.7 µg/mL (≈ 4.76 µM) |  |  |  | Cc1cc(C)n2ccc(C(=O)NC3CCOc4c(F)ccc(F)c43)c2n1 (stereo not drawn) [III-171]
40 | > 20% | > 60% | 1.5 µg/mL (≈ 4.2 µM) |  |  |  | Cc1cc(C)n2ccc(C(=O)NC3CCOc4ccc(F)c(F)c43)c2n1 (stereo not drawn) [III-172]
